Source: US4968819A, “Process for the preparation of chromene derivatives” (Alkaloida Vegyeszeti Gyar, priority 1983, dated 1990)
“Also recorded” adds a separate entry of the source. Read-outs that look alike come from different tables or passages of the source. Values belong to the molecule of their own block, whether it stands above or below them.

Legend:
[1] = tested on: domestic fly (Musca domestica); experiment: Domestic fly test (larvae in treated nutrient medium); format: in vivo; settings: 0.1% related to milk, 0.05% related to total nutrient medium
Description: The fly larvae are grown on a nutrient medium of the following composition: 2 ml of milk; 2 ml of water; 2 g of wheat bran; 0.1 ml of saturated alcoholic nipagin solution.
The nutrient medium is filled into cylindrical glass vials (30×100 mm) and 25 fly larvae are raised in each vial. The test compound is dissolved in milk; the end concentration (related to milk) amounts to 0.1% which corresponds to 0.05% (related to the total nutrient medium). The solution of the active ingredient is admixed with the nutrient medium whereupon […] of domestic fly larvae of the I. stage are placed into each vial and the vials are closed with a hard cotton-wool stopper. The nymphs emerging from the larvae are collected in each vial, counted and kept in a Petri dish (diameter 25 mm) until flies hatch from the nymphs. The hatched flies are counted.

[2] = tested on: mustard beetle; experiment: Mustard beetle test (sprayed mustard seedlings); format: in vivo; settings: concentration 1%
Description: Two weeks' old mustard seedlings are sprayed with a solution of 0.1 g of the test compound, 0.5 ml of dimethyl sulfoxide, and 10 μl of 50 EC composition in 10 ml of water. After the spray is dried, 20 mustard larvae of the II. stage are placed on each plant. The sprayed plants are charged every second day. The evaluation is based on the number of the imagos hatching from the nymphs.

[3] = tested on: cabbage butterfly (Pieris brassicae); experiment: Cabbage butterfly test (sprayed cabbage seedlings); format: in vivo; settings: Pieris brassicae; 50 EC, 0.1%; read-out: Killing rate of larvae
Description: From the 50 EC of the test compound a diluted series is prepared with water and the host seedlings (cabbage) are sprayed with this composition until the spray runs down. The spray is allowed to dry whereupon 20 young larvae of the II. stage are placed on each treated plant and the seedlings are kept under so-called "long-day" illumination (18 hours of illumination and 6 hours of darkness). The nibbled plants are replaced by similarly sprayed plants if necessary. The killing rate of the insects, the growth rate of the larvae and the morphological deformations of the surviving nymphs and adults are registered.
In the 50 EC compositions the concentration of compounds 23 and 25 amounts to 0.01% and that of the other compounds to 0.1%.

[4] = pK by spectrophotometrical measurement; format: physicochemical; settings: for pK7 (2.): 7-OH; for pKX (2.): second OH, X = 5, 6 or 8
Text: (§1) This difference can be strengthened by deliberate direction of the reaction conditions to such an extent that selective mono-O-substitution can be carried out with excellent yields. It has been confirmed by various measurements and calculations (PMR, CMR, UV-VLS spectrophotometrical and potentiometric acid-base titrations, pK determinations, "all valence" CNDO quantumchemical calculations. electrostatical potential map calculation) that the hydroxy group in position 7 is the most reactive while the hydroxy groups in positions 5, 6 and 8, respectively, are less reactive.
(2.) according to spectrophotometrical measurement).

[5] = pK by potentiometrical titration; format: physicochemical; settings: 7-OH
Text: as §1
(1.) is determined by potentiometrical titration and […]

[6] = tested on: tomato root gall nematode (Meloidogyne incognita); experiment: Tomato root gall nematode test (II. stage infective larvae, treated NGM agar plate); format: in vivo; settings: 72 hours; for mortality at 200 µg/mL / mortality at 400 µg/mL: Meloidogyne incognita
Description: (6) Root gall nematode The test is carried out on II. stage infective larvae, which are collected from the root of tomato plant, placed on a filter and incubated in sterile water at 25° C. The hatched larvae are collected every 24 hours and immediately placed onto the treated nutrient medium. As nutrient medium NGM agar plate free from bacterial is used. 0.5 ml of the acetoneous solution of the test compound is applied onto the surface of the plate in a Petri-dish. After the acetone has evaporated 5 μl of the larva suspension is applied onto each plate. After 72 hours the surviving and killed insects are counted.

[7] = tested on: cotton bug (Dysdercus fasciatus); experiment: Cotton bug test (topical application on II. stage larvae); format: in vivo; settings: for AJH effect: adultoid symptoms
Description: (1) Cotton bug test A dilution series is prepared from the test compound with acetone and 0.2 μl of each dilution is topically applied onto the back part of larvae of the II. stage of growth with the aid of a Hamiltion syringe. The active ingredient is absorbed through the cuticula. The animals are kept in a large glass and fed with cotton grains and water. After adult shedding the surviving insects are observed for eventual adultoid symptoms, the egg-reproduction and the development of the ovules is evaluated too. (Remark: in the cotton bug test 50 insects are used).

[8] = tested on: Caenorhabditis elegans; experiment: Caenorhabditis elegans test (treated NGM agar plate, young adults); format: in vivo
Description: (5) Caenorhabditis elegans 0.5 ml of the acetonous solution of the test compound is applied onto a NGM agar plate free from bacteria in a Petri dish. After the acetone has dried 25-30 young adults are placed on the plate. After 24 hours the surviving and killed insects are counted.

[9] = tested on: insects; settings: compared with P2; listed as P3; cited from earlier work
[10] = 200 μg/ml, first test, read-out: mortality 1.
[11] = 200 μg/ml, second test, read-out: mortality 2.
[12] = 200 μg/ml, read-out: mortality Average
[13] = 400 μg/ml, first test, read-out: mortality 1.
[14] = 400 μg/ml, second test, read-out: mortality 2.
[15] = 400 μg/ml, read-out: mortality Average

SMILES: CCCOc1ccc2c(c1OC)OC(C)(C)C=C2 [Compound 51]
- Survival adult [1]: 0%
- Survival nymph [1]: 12%
- Survival, adults [2]: 45%
- pest or weed control at 0.1 % [3]: 100%

- pK7 (2.) [4]: 7.2
- pKX (2.) [4]: 11.6
- pK7 (1.) [5]: 7.2
SMILES: CC1(C)CC(=O)c2ccc(O)c(O)c2O1 [8-OH 7-OH 4-H, 7,8-dihydroxy-2,2-dimethyl-4-chromanone]

- pK7 (2.) [4]: 7.0
- pKX (2.) [4]: 11.6
- pK7 (1.) [5]: 7.4
SMILES: CC1(C)CC(=O)c2c(O)cc(O)cc2O1 [5-OH 7-OH 4-OH, 5,7-dihydroxy-2,2-dimethyl-4-chromanone]

SMILES: COc1cc2c(cc1OC)OC(C)(C)C=C2 [Compound 1, 6,7-dimethoxy-2,2-dimethyl-2H-chromene, reference compound]
- Nematocidal effect ([6]; 200 μg/ml): strong
- Nematocidal effect ([6]; 400 μg/ml): strong
- mortality at 200 µg/mL [6, 10]: 76%
- mortality at 200 µg/mL [6, 11]: 76%
- mortality at 200 µg/mL [6, 12]: 76%
- mortality at 400 µg/mL [6, 13]: 98%
- mortality at 400 µg/mL [6, 14]: 95%
- mortality at 400 µg/mL [6, 15]: 97%
- LD50 [7]: 0.6 μg/insect
- Sterilizing effect [7]: 10 μg/insect
- AJH effect [7]: 1 μg/insect
- Size of descendant population ([8]; 200 μg/ml): no descendants
- Size of descendant population ([8]; 400 μg/ml): no descendants

SMILES: Cc1cc(OCC(C)C)cc2c1C=CC(C)(C)O2 [Compound 42]
- Survival adult [1]: 25.5%
- Survival nymph [1]: 45.4%
- Survival, adults [2]: 27%
- pest or weed control at 0.1 % [3]: 100%

- pK7 (2.) [4]: 6.9
- pKX (2.) [4]: 11.4
- pK7 (1.) [5]: 6.8
SMILES: CC1(C)CC(=O)c2cc(O)c(O)cc2O1 [6-OH 7-OH 4-H, 6,7-dihydroxy-2,2-dimethyl-4-chromanone]

SMILES: CCOc1cc2c(cc1OC)C=CC(C)(C)O2 [Compound 3, 6-methoxy-7-ethoxy-2,2-dimethyl-2H-chromene, reference compound]
- Nematocidal effect ([6]; 400 μg/ml): strong
- mortality at 200 µg/mL [6, 10]: 24%
- mortality at 200 µg/mL [6, 11]: 20%
- mortality at 200 µg/mL [6, 12]: 22%
- mortality at 400 µg/mL [6, 13]: 100%
- mortality at 400 µg/mL [6, 14]: 95%
- mortality at 400 µg/mL [6, 15]: 97%
- LD50 [7]: 0.5 μg/insect
- Sterilizing effect [7]: 10 μg/insect
- AJH effect [7]: 10 μg/insect
- Size of descendant population ([8]; 200 μg/ml): some descendants
- Size of descendant population ([8]; 400 μg/ml): no descendants
- effectiveness/activity relative to P2 [9]: ten times more active; also recorded: ten times more effective
